Results on five compounds are retold here after ChEMBL document CHEMBL4840319, “Aromatic Cadinane Sesquiterpenoids from the Fruiting Bodies of Phellinus pini Block SARS-CoV-2 Spike-ACE2 Interaction” (J Nat Prod, 2021).

For assay [1], the target named is Spike glycoprotein/Angiotensin-converting enzyme 2 (Severe acute respiratory syndrome coronavirus 2) (UniProt Q9BYF1+P0DTC2). Description: Inhibition of SARS-CoV-2 spike glycoprotein/ His tagged human ACE2 interaction at 100 uM incubated for 1 hr followed by substrate addition and measured after 15 mins by ELISA relative to control. It is filed as protein assay. For orientation: In an ELISA, binding on a coated surface is turned into a signal by an enzyme label.

Assay [2] concerns the target Spike glycoprotein/Angiotensin-converting enzyme 2 (Severe acute respiratory syndrome coronavirus 2, UniProt P0DTC2+Q9BYF1). Description: Inhibition of SARS-CoV-2 spike glycoprotein/ His tagged human ACE2 interaction incubated for 1 hr followed by substrate addition and measured after 15 mins by ELISA. In kind it is protein assay.

Sequence of Spike glycoprotein/Angiotensin-converting enzyme 2 (Q9BYF1 18-805 limits assumed, other chains not shown): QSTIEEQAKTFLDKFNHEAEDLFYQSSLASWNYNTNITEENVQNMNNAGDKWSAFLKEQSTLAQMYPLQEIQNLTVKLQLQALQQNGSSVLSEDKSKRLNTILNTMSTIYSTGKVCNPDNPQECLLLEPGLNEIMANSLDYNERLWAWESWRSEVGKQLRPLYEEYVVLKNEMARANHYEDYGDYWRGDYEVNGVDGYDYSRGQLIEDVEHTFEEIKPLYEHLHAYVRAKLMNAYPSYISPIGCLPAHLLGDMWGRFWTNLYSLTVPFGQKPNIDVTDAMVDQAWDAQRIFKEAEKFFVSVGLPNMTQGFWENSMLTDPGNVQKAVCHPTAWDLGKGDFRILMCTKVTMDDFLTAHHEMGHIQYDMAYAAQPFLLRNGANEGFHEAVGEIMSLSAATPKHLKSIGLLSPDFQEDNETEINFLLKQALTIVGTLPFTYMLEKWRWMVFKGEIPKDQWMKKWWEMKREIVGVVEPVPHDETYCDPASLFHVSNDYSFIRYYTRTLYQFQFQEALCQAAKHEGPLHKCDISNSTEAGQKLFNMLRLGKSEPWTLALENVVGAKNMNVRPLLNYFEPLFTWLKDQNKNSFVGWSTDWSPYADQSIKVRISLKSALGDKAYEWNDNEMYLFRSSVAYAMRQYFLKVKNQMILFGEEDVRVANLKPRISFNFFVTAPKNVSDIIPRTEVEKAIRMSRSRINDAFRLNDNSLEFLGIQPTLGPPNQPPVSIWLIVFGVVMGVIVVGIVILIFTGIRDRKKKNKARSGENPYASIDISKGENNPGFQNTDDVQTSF

Take `CC(C)c1ccc(C(=O)O)c2ccc(C(=O)O)cc12`: the inhibition – broadly, the change of the read-out against control, counted positive when it falls – in assay [1] was over 50%. In addition, the IC50 – broadly, the concentration at which inhibition is half-maximal – in assay [2] came to 95.1 µM.

With `C[C@@H](CO)c1ccc(CO)c2ccc(C(=O)O)cc12`, the inhibition in assay [1] is over 50%. The compound also gave an IC50 in assay [2] of 94.4 µM.

`C[C@@H](CO)c1ccc(C(=O)O)c2ccc(C(=O)O)cc12` gave an inhibition in assay [1] of over 50%. The same compound came in with an IC50 in assay [2] of 76.1 µM.

`CC(C)(O)c1ccc(CO)c2ccc(C(=O)O)cc12` registered an inhibition in assay [1] of over 50%. Besides, half-maximal inhibition in assay [2] (IC50) required 64.5 µM.

In turn, `CC(C)c1ccc(CO)c2ccc(C(=O)O)cc12` came in with an inhibition in assay [1] of over 50%. The compound also registered an IC50 in assay [2] of 99.1 µM.
